Source: patent US5591741A, “Fungicidal spiroheterocyclic derivatives” (American Cyanamid Company, priority 1993, dated 1997)

Tests used:
[1] = test system: Pseudocercosporella herpotrichoides; test: Activity against wheat eyespot in-vitro (PHI); format: cell-based; conditions: 10 ppm, 10 days, 20° C., mycelial growth
Outline: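 Mycelial growth was scored after 10 days at 20 °C against untreated or diluent controls. The broth was half-strength potato dextrose, holding 10 ppm test compound (from acetone) and 5×10^4 fragments/ml of the eyespot fungus.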

[2] = test system: Alternaria solani; test: Activity against tomato early blight (AS); format: in vivo; conditions: Table VI; tomato seedlings, contact prophylactic foliar spray, 4 days
Outline: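 Plants were challenged with A. solani conidia (10^4 spores/ml) 24 h after a protective foliar spray of compound in 50:50 acetone/water plus 0.04% Tween 20. Held humid at 21° C for 4 days, then percent leaf area with lesions was scored as a rating relative to controls.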

[3] = test system: Venturia inaequalis; test: Activity against apple scab in-vitro (VII); format: cell-based; conditions: 10 ppm, 10 days, 20° C., mycelial growth
Outline: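 V. inaequalis propagules (5×10^4/ml, malt agar-grown) were exposed in half-strength PDB to 10 ppm final test compound delivered in acetone. Growth was scored after incubation for 10 days at 20° C, as a rating relative to untreated or diluent-sprayed controls.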

[4] = test system: Erysiphe graminis f.sp. hordei; test: Activity against barley powdery mildew, direct therapeutic (EGT); format: in vivo; conditions: direct therapeutic foliar spray, 600 ppm, up to 7 days
Outline: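 A curative spray at 600 ppm was applied to single-leaf Golden Promise barley inoculated with powdery mildew conidia the previous day. After up to 7 days at 18 °C and 40% humidity, disease control was rated from percent leaf area sporulating relative to untreated or diluent-sprayed controls.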

[5] = test system: Erysiphe graminis f.sp. hordei; test: Direct protectant activity against barley powdery mildew (EGP); format: in vivo; conditions: direct protectant foliar spray, 8 days
Outline: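 Rating reflects percentage of leaf area with sporulation compared with untreated or diluent-sprayed controls. Protectant spray was applied to single-leaf barley (cv Golden Promise) 24 h before conidia inoculation. Plants were kept at 18 °C and 40% RH throughout, with 8 days of disease development.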

[6] = test system: Botrytis cinerea; test: Direct protectant activity against broad bean grey mould (BCB); format: in vivo; conditions: direct protectant foliar spray, 600 ppm, 4 days
Outline: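 Protectant foliar test: lesion coverage assessed 4 days after inoculation and rated relative to untreated or diluent-sprayed plants. Compound applied at 600 ppm to cv The Sutton leaves 24 h before 10^6 conidia/ml suspension; incubation at 22 °C in high humidity.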

[7] = test system: Leptosphaeria nodorum; test: Activity against wheat leafspot (LN); format: in vivo; conditions: direct therapeutic foliar spray, 600 ppm, 6-8 days
Outline: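 Therapeutic foliar spray: compound at 600 ppm applied to single-leaf wheat (cv Norman) 24 h after inoculation with 1.5×10^6 conidia/ml. Disease control scored after 6-8 days at 22° C and 70% humidity as lesions per leaf versus untreated or diluent-sprayed controls.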

[8] = test system: Plasmopara viticola; test: Antisporulant activity against vine downy mildew (PVA); format: in vivo; conditions: vine leaves, antisporulant foliar spray, 600 ppm, 750 l/ha
Outline: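 Cabernet Sauvignon vines (~8 cm) inoculated on lower leaf surfaces with 5×10^4 zoosporangia/ml, held 24 h at 21° C high humidity then 24 h glasshouse. Infected leaves sprayed underside with 600 ppm compound in 1:1 water/acetone, 0.04% Tween 20, 750 l/ha; 96 h glasshouse, 24 h humidity. Sporulating leaf area rated versus control.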

[9] = test system: Phytophthora infestans; format: in vivo; conditions: tomato, direct protectant foliar spray
[10] = test system: Rhizoctonia solani; test: Activity against Rhizoctonia in-vitro (RSI); format: cell-based; conditions: 10 ppm, 10 days, 20° C., mycelial growth
Outline: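 Compound at a final 10 ppm (acetone vehicle) in half-strength PDB, inoculated with 5×10^4 fragments/ml of shaken-culture R. solani mycelium. After incubation at 20° C for 10 days, growth scored as a rating versus untreated or diluent-treated controls.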

[11] = test system: Pyricularia oryzae; format: in vivo; conditions: rice seedlings, direct therapeutic foliar spray, 600 ppm, 4-5 days

CC(C)(C)C1CCC2(CC1)CC(NC1CCCCC1)CO2 (stereo not shown) [Compound 16]
disease control rating PHI [1]: 0 (less than 50% disease control) | disease control rating AS [2]: 2 (greater than 80% disease control) | disease control rating VII [3]: 2 (greater than 80% disease control) | disease control rating EGT [4]: 2 (greater than 80% disease control) | disease control rating EGP [5]: 2 (greater than 80% disease control) | disease control rating BCB [6]: 1 (about 50-80% disease control) | disease control rating LN [7]: 1 (about 50-80% disease control) | disease control rating PVA [8]: 0 (less than 50% disease control) | disease control rating PIP [9]: 0 (less than 50% disease control) | disease control rating RSI [10]: 0 (less than 50% disease control) | disease control rating PO [11]: 0 (less than 50% disease control)

CC(C)(C)C1CCC2(CC1)CC(N1CCOCC1)CO2 (stereo not shown) [Compound 11]
disease control rating PHI [1]: 1 (about 50-80% disease control) | disease control rating AS [2]: 0 (less than 50% disease control) | disease control rating VII [3]: 1 (about 50-80% disease control) | disease control rating EGT [4]: 0 (less than 50% disease control) | disease control rating EGP [5]: 2 (greater than 80% disease control) | disease control rating BCB [6]: 0 (less than 50% disease control) | disease control rating LN [7]: 0 (less than 50% disease control) | disease control rating PVA [8]: 0 (less than 50% disease control) | disease control rating PIP [9]: 0 (less than 50% disease control) | disease control rating RSI [10]: 0 (less than 50% disease control) | disease control rating PO [11]: 0 (less than 50% disease control)

CCCCCCCCCCCCCCNC1COC2(CCC(C(C)(C)C)CC2)C1 (stereo not shown) [Compound 44]
disease control rating PHI [1]: 0 (less than 50% disease control) | disease control rating AS [2]: 0 (less than 50% disease control) | disease control rating VII [3]: 0 (less than 50% disease control) | disease control rating EGT [4]: 2 (greater than 80% disease control) | disease control rating EGP [5]: 2 (greater than 80% disease control) | disease control rating BCB [6]: 0 (less than 50% disease control) | disease control rating LN [7]: 0 (less than 50% disease control) | disease control rating PVA [8]: 0 (less than 50% disease control) | disease control rating PIP [9]: 0 (less than 50% disease control) | disease control rating RSI [10]: 0 (less than 50% disease control) | disease control rating PO [11]: 0 (less than 50% disease control)

CCCCCN(CCCC)C1COC2(CCC(C(C)(C)C)CC2)C1 (stereo not shown) [Compound 74]
disease control rating PHI [1]: 0 (less than 50% disease control) | disease control rating AS [2]: 0 (less than 50% disease control) | disease control rating VII [3]: 0 (less than 50% disease control) | disease control rating EGT [4]: 2 (greater than 80% disease control) | disease control rating EGP [5]: 2 (greater than 80% disease control) | disease control rating BCB [6]: 0 (less than 50% disease control) | disease control rating LN [7]: 0 (less than 50% disease control) | disease control rating PVA [8]: 0 (less than 50% disease control) | disease control rating PIP [9]: 0 (less than 50% disease control) | disease control rating RSI [10]: 0 (less than 50% disease control) | disease control rating PO [11]: 0 (less than 50% disease control)

CC(C)CNC1COC2(CCC(C(C)(C)CC(C)(C)C)CC2)C1 (stereo not shown) [Compound 137]
disease control rating PHI [1]: 2 (greater than 80% disease control) | disease control rating AS [2]: 0 (less than 50% disease control) | disease control rating VII [3]: 1 (about 50-80% disease control) | disease control rating EGT [4]: 2 (greater than 80% disease control) | disease control rating EGP [5]: 2 (greater than 80% disease control) | disease control rating BCB [6]: 0 (less than 50% disease control) | disease control rating LN [7]: 2 (greater than 80% disease control) | disease control rating PVA [8]: 0 (less than 50% disease control) | disease control rating PIP [9]: 0 (less than 50% disease control) | disease control rating RSI [10]: 2 (greater than 80% disease control) | disease control rating PO [11]: 0 (less than 50% disease control)
